Activity calls are given as the source filed them.
Key:
[1] = biological target: T1, Replicative DNA helicase DnaB (Mycobacterium tuberculosis, UniProt P9WMR3); test: DnaB intein splicing inhibitors, dose response, biochemical, cell-free fluorescence (AID 449749); format: functional
T1 sequence (P9WMR3 whole entry): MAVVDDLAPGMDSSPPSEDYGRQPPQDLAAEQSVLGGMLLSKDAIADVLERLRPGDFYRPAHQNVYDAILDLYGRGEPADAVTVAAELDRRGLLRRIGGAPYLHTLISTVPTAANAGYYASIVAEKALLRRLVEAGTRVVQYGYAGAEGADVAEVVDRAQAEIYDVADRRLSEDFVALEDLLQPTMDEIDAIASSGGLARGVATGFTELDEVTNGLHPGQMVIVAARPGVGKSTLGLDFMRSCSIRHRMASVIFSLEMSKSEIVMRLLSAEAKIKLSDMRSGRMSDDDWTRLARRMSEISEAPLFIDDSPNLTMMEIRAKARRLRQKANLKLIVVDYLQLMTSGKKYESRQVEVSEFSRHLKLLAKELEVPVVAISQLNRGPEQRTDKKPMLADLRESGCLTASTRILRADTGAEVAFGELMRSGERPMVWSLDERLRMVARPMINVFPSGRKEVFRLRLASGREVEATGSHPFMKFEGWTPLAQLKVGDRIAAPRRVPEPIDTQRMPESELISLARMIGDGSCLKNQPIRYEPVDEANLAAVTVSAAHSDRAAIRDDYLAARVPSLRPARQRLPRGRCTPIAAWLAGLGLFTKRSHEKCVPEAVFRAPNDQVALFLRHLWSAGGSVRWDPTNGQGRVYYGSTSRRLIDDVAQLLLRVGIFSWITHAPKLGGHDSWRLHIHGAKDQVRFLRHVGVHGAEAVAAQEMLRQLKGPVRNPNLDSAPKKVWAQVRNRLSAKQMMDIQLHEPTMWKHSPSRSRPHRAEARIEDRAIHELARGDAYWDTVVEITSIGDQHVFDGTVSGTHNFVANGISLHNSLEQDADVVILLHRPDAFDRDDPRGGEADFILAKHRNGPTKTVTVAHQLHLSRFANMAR

[2] = biological target: T2, Protein RecA (Mycobacterium tuberculosis, UniProt P9WHJ3); test: Fluorescence Cell-Free Homogeneous Dose Retest to Identify Inhibitors of RecA-Intein Splicing Activity. [Related pubchem assays (depositor defined):AID2097, AID2223, AID489010, AID492950]; format: functional
T2 sequence (P9WHJ3 whole entry): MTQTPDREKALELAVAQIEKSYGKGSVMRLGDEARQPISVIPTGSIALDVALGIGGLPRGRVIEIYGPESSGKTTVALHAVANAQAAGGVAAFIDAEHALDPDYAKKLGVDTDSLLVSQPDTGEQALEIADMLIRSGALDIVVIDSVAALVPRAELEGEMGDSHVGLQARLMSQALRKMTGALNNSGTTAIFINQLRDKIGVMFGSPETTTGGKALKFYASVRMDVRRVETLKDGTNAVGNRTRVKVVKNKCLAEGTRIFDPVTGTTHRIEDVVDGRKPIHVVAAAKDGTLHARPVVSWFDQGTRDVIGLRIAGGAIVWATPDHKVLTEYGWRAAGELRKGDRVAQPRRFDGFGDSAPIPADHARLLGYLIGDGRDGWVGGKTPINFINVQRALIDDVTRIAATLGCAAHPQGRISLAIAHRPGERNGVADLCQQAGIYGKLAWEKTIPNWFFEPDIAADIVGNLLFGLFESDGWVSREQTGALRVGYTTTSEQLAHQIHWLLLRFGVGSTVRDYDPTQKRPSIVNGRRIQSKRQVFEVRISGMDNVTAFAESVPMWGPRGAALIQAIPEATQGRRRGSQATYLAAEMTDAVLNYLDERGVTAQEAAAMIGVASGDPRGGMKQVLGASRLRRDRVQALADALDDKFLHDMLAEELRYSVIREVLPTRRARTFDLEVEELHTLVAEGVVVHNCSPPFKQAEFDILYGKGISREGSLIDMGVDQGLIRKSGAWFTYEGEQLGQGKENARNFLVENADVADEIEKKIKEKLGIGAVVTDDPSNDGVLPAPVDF

[3] = biological target: T3, Sentrin-specific protease 8 (Homo sapiens, UniProt Q96LD8); format: functional
T3 sequence (Q96LD8 whole entry): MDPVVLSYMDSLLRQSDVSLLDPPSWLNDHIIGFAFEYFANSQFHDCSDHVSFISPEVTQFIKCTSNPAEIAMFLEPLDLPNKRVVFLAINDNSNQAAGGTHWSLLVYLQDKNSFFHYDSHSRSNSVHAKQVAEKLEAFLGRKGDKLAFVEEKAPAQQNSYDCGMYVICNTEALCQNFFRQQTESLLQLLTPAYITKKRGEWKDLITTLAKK

[4] = biological target: T3, Sentrin-specific protease 8; format: functional; remark: listed apart in the source
[5] = biological target: Tyrosyl-DNA phosphodiesterase 2 (Homo sapiens, UniProt O95551); test: potency against TDP2 phosphodiesterase activity – biochemical, epi absorbance, IC50, dose response (AID 743297)
[6] = biological target: T4, Ubiquitin-conjugating enzyme E2 N (Homo sapiens, UniProt P61088); format: functional;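 further: Dose-response confirmation in a TR-FRET assay detecting UBC13-driven polyubiquitin chain formation, inhibition measured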
T4 sequence (P61088 whole entry): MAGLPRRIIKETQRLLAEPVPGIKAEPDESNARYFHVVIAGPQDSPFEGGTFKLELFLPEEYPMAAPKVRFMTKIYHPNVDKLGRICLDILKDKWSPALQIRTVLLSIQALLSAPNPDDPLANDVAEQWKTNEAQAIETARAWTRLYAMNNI

[7] = biological target: Major prion protein (Homo sapiens, UniProt P04156); format: functional, cell-based
[8] = cells
[9] = viability loss in HepG2 hepatoma cells – cell-based, ATP luminescence, cherry-pick, activator set 2, cytotoxicity control, dose response (AID 1053143); format: functional
[10] = biological target: T5, DNA repair and recombination protein RAD54-like (Homo sapiens, UniProt Q92698); test: RAD54 Holliday junction migration blockers – biochemical, fluorescence, cherry-picked samples, dose series, confirmation (AID 651657); format: functional
T5 sequence (Q92698 whole entry): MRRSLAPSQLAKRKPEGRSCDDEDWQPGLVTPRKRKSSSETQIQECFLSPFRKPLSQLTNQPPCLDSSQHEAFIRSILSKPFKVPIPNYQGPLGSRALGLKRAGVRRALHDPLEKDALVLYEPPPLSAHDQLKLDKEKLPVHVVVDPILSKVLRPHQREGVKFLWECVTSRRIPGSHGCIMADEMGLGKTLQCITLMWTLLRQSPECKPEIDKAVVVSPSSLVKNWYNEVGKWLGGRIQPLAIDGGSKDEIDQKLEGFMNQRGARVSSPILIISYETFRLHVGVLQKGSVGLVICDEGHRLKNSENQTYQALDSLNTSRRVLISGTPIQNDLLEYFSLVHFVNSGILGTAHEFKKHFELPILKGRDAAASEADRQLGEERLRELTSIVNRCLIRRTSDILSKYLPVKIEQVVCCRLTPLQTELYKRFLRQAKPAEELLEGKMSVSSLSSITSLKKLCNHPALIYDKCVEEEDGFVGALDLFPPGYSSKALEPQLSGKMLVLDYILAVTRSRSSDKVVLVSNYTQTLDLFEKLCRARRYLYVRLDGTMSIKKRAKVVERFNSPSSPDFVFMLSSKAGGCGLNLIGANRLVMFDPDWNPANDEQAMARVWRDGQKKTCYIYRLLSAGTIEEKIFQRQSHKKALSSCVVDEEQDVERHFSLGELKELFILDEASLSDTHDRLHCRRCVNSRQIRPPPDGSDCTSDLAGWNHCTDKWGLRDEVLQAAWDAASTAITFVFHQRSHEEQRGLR

[11] = biological target: Endoplasmic reticulum aminopeptidase 1 (Homo sapiens, UniProt Q9NZ08); test: inhibition of human ERAP1 enzyme activity – biochemical, cherry-pick, set 2, plate reader, dose response (AID 743314)
[12] = general mammalian cell viability loss – inhibitor set, cherry-pick, set 2, cytotoxicity control for miR-122 modulator project, dose response (AID 720697); format: functional, cell-based
[13] = general mammalian cell viability loss – activator set, cherry-pick, cytotoxicity control for miR-122 modulator project, dose response (AID 720690); format: functional, cell-based;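 further: HEK293T human cells scored for general mammalian cytotoxicity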
[14] = biological target: Ras and Rab interactor 1/Tyrosine-protein kinase ABL1 (Homo sapiens, UniProt P00519+Q13671); format: functional;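 further: biochemical TR-FRET dose-response test measuring inhibition of binding between Rin1 and Abl proteins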
[15] = A549 cell cytotoxicity, dose response, cytotoxicity control, plate reader, cherry-pick, antagonist series (AID 743412); format: functional, cell-based
[16] = toxicity toward HepG2 liver cells – cell-based, plate reader, cherry-pick, antagonist series, cytotoxicity control, dose response (AID 743416); format: functional
[17] = blockers of bursicon-stimulated LGR2 cAMP reporter – cell-based, HEK293, CRE-luciferase reporter, cherry pick, set 2, dose response (AID 743343); format: functional;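 further: transfected cells were stimulated with diluted bursicon conditioned medium after compound addition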
[18] = blockade of melanocortin 4 receptor signaling – cell-based, plate reader, cherry pick, counter-screen for LGR2 antagonist project, dose response (AID 743444); format: functional;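 further: transfected HEK 293 cells stimulated with alpha-MSH peptide; potency of inhibitors of the alpha-MSH evoked signal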
[19] = viability loss in HEK293 cells – cell-based, plate reader, cherry-picked samples, cytotoxicity control, dose response (AID 743446); format: functional
[20] = tested on: Streptococcus sp. 'group A'; test: Streptococcus pyogenes SK(-)GAS viability under kanamycin – luminescence, BacTiterGlo, confirmation, counter-screen for streptokinase expression inhibitor project, dose response (AID 1900); format: functional, organism-based
[21] = tested on: BJ; test: BJ-TERT fibroblast viability loss – cell-based, RAS-independent, luminescence, dose response (AID 1933); format: functional; conditions: Homo sapiens
[22] = biological target: T6, Streptokinase A (Streptococcus pyogenes serotype M1, UniProt P10520); test: viability-normalized secreted streptokinase activity reduction – plasminogen activation absorbance, OD405, dose response (AID 1914); format: functional, Streptococcus pyogenes M1 GAS;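 further: secreted streptokinase activity via plasminogen activation per viability signal from cell pellet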
T6 sequence (P10520 whole entry): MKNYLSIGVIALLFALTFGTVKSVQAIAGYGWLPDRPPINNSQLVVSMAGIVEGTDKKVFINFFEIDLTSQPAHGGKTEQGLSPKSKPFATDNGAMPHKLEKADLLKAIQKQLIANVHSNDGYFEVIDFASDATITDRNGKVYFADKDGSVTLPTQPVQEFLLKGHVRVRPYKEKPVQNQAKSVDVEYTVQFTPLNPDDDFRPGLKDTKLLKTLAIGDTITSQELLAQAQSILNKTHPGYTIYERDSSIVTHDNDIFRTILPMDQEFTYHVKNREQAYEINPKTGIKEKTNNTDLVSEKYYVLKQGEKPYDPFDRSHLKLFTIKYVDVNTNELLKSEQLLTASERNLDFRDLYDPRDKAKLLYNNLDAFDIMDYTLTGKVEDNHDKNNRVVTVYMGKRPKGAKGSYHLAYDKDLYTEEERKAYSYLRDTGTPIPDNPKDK

[23] = tested on: BJ; test: cells; format: functional, cell-based; conditions: Homo sapiens
[24] = tested on: BJ; test: BJ-TERT-LT-ST fibroblast viability loss – cell-based, RAS-independent, luminescence, dose response (AID 1935); format: functional; conditions: Homo sapiens;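 further: BJ fibroblasts immortalized with TERT plus LT and ST oncogenes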
[25] = DRD fibroblast viability loss – cell-based, non-viral oncogenic, luminescence, dose response (AID 1934); format: functional; conditions: Homo sapiens
[26] = tested on: Streptococcus; test: GAS UMAA2166 growth inhibition – luminescence, BacTiterGlo, counter-screen for streptokinase expression inhibitor project, dose response (AID 1915); format: functional, organism-based;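 further: potency for reduction of bacterial viability or growth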
[27] = HEK-293T cell viability reduction – luminescence, B-cell screen hits, cytotoxicity control for BCR NF-kB inhibitor project, dose response (AID 489021); format: functional, cell-based;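 further: HEK-293T cells carrying an NF-kB luciferase reporter; cells exposed to compound for about 14 hours before viability readout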
[28] = tested on: INS1; test: INS-1E survival protection against cytokine death – cell-based, luminescence, retest, dose response (AID 449756); format: functional; conditions: Rattus norvegicus;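 further: cell death triggered by IL-1 beta plus TNF-alpha plus IFN-gamma mixture; protective hits raise ATP signal compared with cytokine alone wells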
[29] = reduction of Shn3 3'UTR-driven luciferase in osteoblasts – cell-based, Clone20 osteoblasts, firefly luciferase, cherry-picked, dose response (AID 624132); format: functional;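 further: firefly luciferase luminescence from reporter carrying the Shn3 3'UTR in osteoblasts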
[30] = loss of viability in HepG2 cells – cell-based, CellTiter-Glo, cherry-picked, cytotoxicity control for Shn3 inhibitor project, dose response (AID 624134); format: functional
[31] = non-specific 3'UTR reporter inhibition in Clone20-Shn3RL – cell-based, Renilla luciferase, cherry-picked, counter-screen for Shn3 inhibitor project, dose response (AID 624133); format: functional
[32] = activation of miR-122 Renilla sensor silencing – cell-based, Huh7 psiCHECK-miR122, Renilla luciferase, cherry-picked, dose response (AID 651956); format: functional;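 further: huh7 hepatoma cells stably carrying a psiCHECK-2 miR-122 sensor plasmid; renilla luciferase signal reporting endogenous miR-122 activity after 48 h compound exposure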
[33] = reduced cellular PGC1a acetyl-lysine signal – cell-based, cherry-picked samples, dose response (AID 720514); format: functional;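 further: potency may reflect raised or lowered acetylation signal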

Ras and Rab interactor 1/Tyrosine-protein kinase ABL1, sequence (P00519 whole entry): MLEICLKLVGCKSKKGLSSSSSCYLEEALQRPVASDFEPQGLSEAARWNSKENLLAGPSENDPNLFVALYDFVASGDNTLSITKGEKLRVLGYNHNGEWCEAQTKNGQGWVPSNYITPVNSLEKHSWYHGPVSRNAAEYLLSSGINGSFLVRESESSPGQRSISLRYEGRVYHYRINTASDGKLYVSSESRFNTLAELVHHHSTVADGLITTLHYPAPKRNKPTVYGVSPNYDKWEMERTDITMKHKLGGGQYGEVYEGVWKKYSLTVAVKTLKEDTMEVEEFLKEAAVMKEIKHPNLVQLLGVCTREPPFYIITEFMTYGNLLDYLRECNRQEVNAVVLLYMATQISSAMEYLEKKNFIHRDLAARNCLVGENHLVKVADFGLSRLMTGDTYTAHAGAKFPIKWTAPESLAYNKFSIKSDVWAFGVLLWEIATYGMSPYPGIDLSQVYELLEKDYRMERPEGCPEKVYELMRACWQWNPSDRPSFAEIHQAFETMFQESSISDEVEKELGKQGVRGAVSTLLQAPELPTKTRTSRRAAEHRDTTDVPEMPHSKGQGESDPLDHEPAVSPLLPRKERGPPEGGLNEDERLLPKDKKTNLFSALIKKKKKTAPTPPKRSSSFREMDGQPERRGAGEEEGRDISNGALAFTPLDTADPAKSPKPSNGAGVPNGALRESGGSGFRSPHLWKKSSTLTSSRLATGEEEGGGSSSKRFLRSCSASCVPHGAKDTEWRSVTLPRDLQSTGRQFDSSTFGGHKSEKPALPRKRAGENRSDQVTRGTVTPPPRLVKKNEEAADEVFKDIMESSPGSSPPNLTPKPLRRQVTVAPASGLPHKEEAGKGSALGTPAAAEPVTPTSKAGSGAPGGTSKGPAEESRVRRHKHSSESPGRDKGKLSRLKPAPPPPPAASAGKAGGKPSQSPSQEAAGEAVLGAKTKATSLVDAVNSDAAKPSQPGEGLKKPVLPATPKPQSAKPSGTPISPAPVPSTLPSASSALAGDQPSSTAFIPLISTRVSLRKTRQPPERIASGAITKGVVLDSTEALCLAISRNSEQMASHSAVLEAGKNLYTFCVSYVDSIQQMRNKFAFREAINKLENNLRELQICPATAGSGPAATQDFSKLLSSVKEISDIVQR
Ras and Rab interactor 1/Tyrosine-protein kinase ABL1, sequence (Q13671 whole entry): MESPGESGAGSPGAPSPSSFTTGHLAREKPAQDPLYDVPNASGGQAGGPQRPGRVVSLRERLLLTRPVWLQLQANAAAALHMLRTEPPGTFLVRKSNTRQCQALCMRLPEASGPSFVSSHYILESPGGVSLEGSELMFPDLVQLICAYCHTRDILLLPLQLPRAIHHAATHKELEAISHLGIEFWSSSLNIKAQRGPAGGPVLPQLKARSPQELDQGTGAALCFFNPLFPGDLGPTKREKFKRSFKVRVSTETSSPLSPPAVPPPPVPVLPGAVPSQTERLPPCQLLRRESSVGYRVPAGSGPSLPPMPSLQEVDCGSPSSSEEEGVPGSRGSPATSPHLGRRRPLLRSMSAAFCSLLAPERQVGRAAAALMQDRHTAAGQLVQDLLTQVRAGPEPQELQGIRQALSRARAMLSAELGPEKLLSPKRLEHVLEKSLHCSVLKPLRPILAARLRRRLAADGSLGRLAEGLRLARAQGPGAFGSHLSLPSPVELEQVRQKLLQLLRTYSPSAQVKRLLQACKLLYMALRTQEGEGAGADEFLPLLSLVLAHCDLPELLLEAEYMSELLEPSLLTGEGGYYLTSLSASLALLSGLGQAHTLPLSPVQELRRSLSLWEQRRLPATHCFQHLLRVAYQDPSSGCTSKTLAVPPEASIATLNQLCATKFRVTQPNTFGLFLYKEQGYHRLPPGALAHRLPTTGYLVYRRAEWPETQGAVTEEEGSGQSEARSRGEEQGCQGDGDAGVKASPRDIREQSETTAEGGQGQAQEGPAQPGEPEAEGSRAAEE
Tyrosyl-DNA phosphodiesterase 2, sequence (O95551 whole entry): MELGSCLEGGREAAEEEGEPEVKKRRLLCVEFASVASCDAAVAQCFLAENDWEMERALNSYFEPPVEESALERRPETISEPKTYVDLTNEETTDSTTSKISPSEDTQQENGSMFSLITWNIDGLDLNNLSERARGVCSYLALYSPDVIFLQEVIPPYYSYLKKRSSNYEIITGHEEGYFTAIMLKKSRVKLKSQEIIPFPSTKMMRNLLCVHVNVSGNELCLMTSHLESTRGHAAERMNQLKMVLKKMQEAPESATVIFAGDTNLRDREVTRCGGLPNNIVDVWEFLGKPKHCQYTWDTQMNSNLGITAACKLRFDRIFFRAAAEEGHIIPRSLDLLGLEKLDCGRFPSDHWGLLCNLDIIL
Endoplasmic reticulum aminopeptidase 1, sequence (Q9NZ08 whole entry): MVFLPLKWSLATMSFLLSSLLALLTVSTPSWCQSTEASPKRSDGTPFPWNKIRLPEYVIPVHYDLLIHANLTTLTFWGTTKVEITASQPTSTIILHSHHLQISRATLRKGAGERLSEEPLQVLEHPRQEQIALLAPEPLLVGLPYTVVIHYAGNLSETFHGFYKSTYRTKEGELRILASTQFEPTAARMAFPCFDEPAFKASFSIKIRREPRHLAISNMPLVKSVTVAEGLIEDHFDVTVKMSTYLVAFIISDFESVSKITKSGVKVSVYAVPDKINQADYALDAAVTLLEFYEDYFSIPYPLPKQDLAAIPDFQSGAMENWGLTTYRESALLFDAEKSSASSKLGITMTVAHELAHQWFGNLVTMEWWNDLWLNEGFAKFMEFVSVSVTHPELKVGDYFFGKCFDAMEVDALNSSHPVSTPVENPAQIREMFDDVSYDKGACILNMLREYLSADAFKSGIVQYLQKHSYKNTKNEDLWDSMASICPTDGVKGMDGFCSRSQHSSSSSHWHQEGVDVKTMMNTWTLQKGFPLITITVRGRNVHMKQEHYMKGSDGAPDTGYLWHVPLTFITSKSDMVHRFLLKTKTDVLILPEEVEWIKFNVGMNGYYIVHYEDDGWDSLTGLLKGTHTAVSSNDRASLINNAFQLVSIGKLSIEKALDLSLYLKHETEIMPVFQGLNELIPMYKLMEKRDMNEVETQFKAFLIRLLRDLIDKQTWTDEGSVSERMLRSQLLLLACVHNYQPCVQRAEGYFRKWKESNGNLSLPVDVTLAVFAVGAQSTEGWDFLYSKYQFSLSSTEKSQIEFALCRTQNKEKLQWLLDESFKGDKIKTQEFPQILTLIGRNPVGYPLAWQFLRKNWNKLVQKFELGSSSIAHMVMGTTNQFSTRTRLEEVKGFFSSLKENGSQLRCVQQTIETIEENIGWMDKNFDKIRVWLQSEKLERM

## COC(=O)c1ccccc1-c1ccc(C(c2c(C)n[nH]c2O)c2c(C)n[nH]c2O)o1
[1]
  AC50: 0.279 µM (active)
[2]
  EC50: 0.214 µM (active)
[3]
  IC50: 18.6 µM (active)
[4]
  IC50: 8.91 µM (active)
[5]
  IC50: 51.2 µM (inactive)

## Cc1ccc(NC(=O)CSc2ncnc3ccccc23)cc1S(=O)(=O)N1CCOCC1
[6]
  IC50: > 20 µM (inactive)
[7]
  IC50: 8.72 µM (active)
[8]
  IC50: > 138 µM (inactive)

## Cc1occc1-c1nnc(SC(C)C(=O)Nc2ccccc2F)o1 (stereo not drawn)
[9]
  AC50: 19.3 µM (active)

## CN1CCCC1CCNc1ccc2c(=O)c3ccccc3oc2c1 (stereo not drawn)
[10]
  AC50: 21.1 µM (active)
[11]
  AC50: 4.52 µM (active)

## CCOC(=O)C(CC)Sc1cc(C)nc2ccc(OC)cc12 (stereo not drawn)
[7]
  IC50: 5.29 µM (active)
[8]
  IC50: > 138 µM (inactive)

## COc1cccc(NC(=O)N[C@H]2CC[C@H](CC(=O)Nc3ccc(-c4ccccc4)cc3)O[C@@H]2CO)c1
[12]
  AC50: 0.479 µM (active)
[13]
  AC50: 44.3 µM (active)

## CCOC(=O)c1ccc(NC(=O)COc2ccccc2CNCCc2ccccc2)cc1
[14]
  IC50: 25.9 µM (inactive)
[15]
  AC50: 10 µM (active)
[16]
  AC50: 13.9 µM (active)
[17]
  AC50: 17.4 µM (active)
[18]
  AC50: 27.7 µM (active)
[19]
  AC50: 15.4 µM (active)

## COc1cccc(N2CCN(c3[nH]cnc4c5cc(F)ccc5nc3-4)CC2C)c1 (stereo not drawn)
[20]
  EC50: 8 µM (active)
[21]
  EC50: 6.14 µM (inconclusive)
[22]
  EC50: 15.3 µM (active)
[23]
  EC50: 9.04 µM (active)
[24]
  EC50: 8.16 µM (active)
[25]
  EC50: 6.44 µM (active)
[26]
  EC50: 48.4 µM (active)
[27]
  IC50: 1.83 µM (active)
[28]
  AC50: 2.25 µM (active)
[29]
  AC50: 1.31 µM (active)
[30]
  AC50: 9.99 µM (active)
[31]
  AC50: 0.49 µM (active)
[32]
  AC50: 6.99 µM (active)
[33]
  AC50: 6.56 µM (active)
[12]
  AC50: 3.06 µM (active)
[13]
  AC50: 3.35 µM (active)

## NC(=O)COC(=O)CC(NC(N)=O)c1ccc(Cl)cc1 (stereo not drawn)
[33]
  AC50: 28.7 µM (active)
